Source: US7485619B2, “Antimicrobial agent” (priority 2005, dated 2009)
Read-outs that look alike come from different tables or passages of the source. No end group written: not given here.

Columns and labels:
[1] = system: methicillin-resistant Staphylococcus aureus (ATCC 700698); type: cell-based
Experimental: (§1) E. coli (ATCC 20922) (5×10^5 cells) in 100 μL of 10 mM Phosphate Buffer, pH 7.0 containing mucocidin peptide concentration of 5, 10, 15, 20, or 50 μM was incubated for an hour. Then, it was diluted 200 fold with the same buffer and 300 μL aliquots (approx. 750 cells) were plated on 150 mm LB plate and grown overnight at 37° C. The grown colonies were counted. The cell viability was estimated by the percent of colony forming units. Staphylococcus aureus (ATCC 25923) and methicillin resistant Staphylococcus aureus (MRSA) (ATCC 700698) were incubated with mucocidin concentration up to 5 μM. Candida albicans (ATCC 10231) were incubated with mucocidin concentration levels up to 50 μM^44.

[2] = system: Staphylococcus aureus (ATCC 25923); type: cell-based; conditions: for bactericidal activity (in words): Table 1
Experimental: (§2) FIGS. 2A-2C show antimicrobial activity of mucocidin. (A) The growth rate of E. coli (0.5×10^3) containing pBluescript SK plasmid with mucocidin cDNA insert and the control E. coli containing plasmid alone in 20 ml LB broth cultured for 5 days. Cell growth was monitored by Absorbance at 600 nm (A600). Induction of vector expression by 20 μL isopropyl-B-D-thiogalactopyranoside (IPTG 1 mM) is on the bottom line. Each point represents average of five experiments. (B) Bactericidal activity of synthetic mucocidin peptide was measured by the percent colony formation units of E. coli and Staphylococcus aureus. Cells (5×10^5) were cultured in 100 μL in IB broth containing 0, 5, 10, 20 μM concentration of mucocidin. After one hour, cell viability was determined by plating 300 μL aliquots of the 200 fold diluted cultured cell broth on LBA or TSA plates, respectively. […] (C) Scanning electron micrographs of E. coli, Staphylococcus aureus and Candida albicans incubated with 10, […] mucocidin, respectively for 10, 20 and 30 min, and they were immediately fixed with glutaraldehyde, dried on the Millipore membrane, and coated with gold. […] All photographs were taken at the same magnification. Scale bar, 1 μm.
as §1
Bactericidal activity of various deletion peptides of mucocidin (PeptRon, Korea) was compared with the activity of Magainin II (23 mer) peptide (Table 1). […] Also first 15 residue peptide likely functions as propeptide and native peptide will likely have 31 residues.

[3] = system: Aspergellous niger (ATCC #16404); assay: USP Antimicrobial Test; type: cell-based; conditions: three log dilution
Source text: (§3) The mucocidin (Microtest Laboratories Test sample #05-03383) met the requirement of the USP Validation of Microbial Recovery.

E. coli (ATCC #8739) = assay: USP Antimicrobial Test; type: cell-based; conditions: three log dilution
Source text: as §3

S. aureus (ATCC #6538) = assay: USP Antimicrobial Test; type: cell-based; conditions: three log dilution
Source text: as §3

[4] = system: P. aeruginosa (ATCC #9027); assay: USP Antimicrobial Test; type: cell-based; conditions: three log dilution
Source text: as §3

[5] = system: Candida albicans (ATCC #10231); assay: USP Antimicrobial Test; type: cell-based; conditions: three log dilution
Source text: as §3

E. coli [6] = assay: Scanning electron micrography of microbes treated with mucocidin; type: cell-based; conditions: 10 μM mucocidin; 10, 20 and 30 min
Experimental: as §2
(§4) Scanning Electron Micrographs were taken of E. coli, Staphylococcus aureus and Candida albicans incubated with 10, 40, 100 μM mucocidin, respectively for 10, 20 and 30 min, and they were immediately fixed with glutaraldehyde, dried on Millipore membrane, and coated with gold. […] All photographs were taken at the same magnification.
(§5) The primary growth of E. coli containing the mucocidin peptide was inhibited in a dose-dependent manner (FIG. 2B). […] To explore a possible mechanism of mucocidin elicited bactericidal activity, the progress of morphological alteration of microbes upon the treatment of mucocidin was determined by scanning electron Microscopy. E. coli, Staphylococcus aureus and Candida albicans (FIG. 2C) incubated with 10, 40, 100 μM mucocidin, respectively for various time periods, were immediately fixed, dried, and coated with gold. […]

Candida albicans = assay: as above; type: cell-based; conditions: 100 μM mucocidin; 10, 20 and 30 min
Experimental: as §2, §4, §5

Staphylococcus aureus = assay: as above; type: cell-based; conditions: 40 μM mucocidin; 10, 20 and 30 min
Experimental: as §2, §4, §5

E. coli (ATCC25922) = type: cell-based; conditions: for decrease of colony forming unit (CFU) percentages: one hour incubation
Experimental: as §2, §1

[7] = system: Candida albicans (ATCC 10231); type: cell-based
Experimental: as §1

[8] = target: T1, guinea pig liver transglutaminase (UniProt P08587); assay: Mucocidin as transglutaminase substrate, monodansylcadaverine incorporation; type: biochemical; conditions: 50 μM mucocidin, 10 μM MDC; 20, 40, 60, 120 min; with or without Ca++
T1 construct: using guinea pig liver transglutaminase (Sigma, St. Luois, Mo.); purchased Sigma; host or cells: guinea pig liver
Experimental: Mucocidin as a transglutaminase substrate was carried out by a slightly modified method of previously described^27 using guinea pig liver transglutaminase (Sigma, St. Luois, Mo.). Transglutaminase assay was carried out by adding 10 μl of enzyme (10 μg) into 90 μL of reaction mixture containing 0.05 M tris acetate buffer, pH 8.0,1 mM EDTA, 5 mM dithiothreitol, 10 mM CaCl2, 0.2% lubrol, and 10 μM of monodansylcadaverine (MDC)(Sigma) and mucocidin (50 μM). Ten μL aliquot of the reaction mixture was removed at 20, 40, 60 and 120 min and added into 500 μL volume of 1 mM EDTA solution to halt the enzyme reaction. Unreacted MDC in solution was extracted with n-hexane. The reacted mucocidin in aqueous solution was blotted on a cellulose nitrate membrane in a slot filtering apparatus (Bio Rad Lab) and washed once with 0.5 mL of water. Relative fluorescence was indicated as a measure of MDC incorporated mucocidin. The aliquots taken from each sample was analyzed on SDS-PAGE.
These immunological staining of the mucosal epithelium indicate that mucocidin is expressed in the outer layers of epithelium and the secreted peptide remains bound to the epithelial surface. […]

[9] = Bacteriocidal activity of salivary mucocidin fractions; type: cell-based; conditions: both Superose 12 peak fractions
Experimental: Thirty milliliters of parotid saliva from each volunteer was collected into the tube containing 1.0 ml of 0.25 M citrate buffer, pH 4.0 containing 0.02% NaN3. The 10 ml acidified saliva was adsorbed into SP-Sepharose column (2.4×6 ml) equilibrated with 0.025 M citrate buffer pH 4.0, the column was washed with 3 fold column volume each of the equilibrating buffer and the 0.05 M tris-acetate buffer pH 6.0 containing 1 mM EDTA. The mucocidin was eluted with the 0.05 M tris-acetate buffer, pH 6.0 containing 0.15 M NaCl. The eluted mucocidin containing fractions assayed by immunodot blot analysis were pooled and concentrated in Speed-vac centrifuge evaporation apparatus. Pooled mucocidin fractions were applied to Superose 12 column equilibrated with 0.02 M tris-acetate buffer pH 6.0. Two of the mucocidin peaks were detected first at 8 kDa molecular weight marker and next far beyond the column volume.

E. coli [10] = assay: Antimicrobial activity of isolated native salivary mucocidin; type: cell-based; conditions: data not shown

T1 sequence (P08587 whole entry): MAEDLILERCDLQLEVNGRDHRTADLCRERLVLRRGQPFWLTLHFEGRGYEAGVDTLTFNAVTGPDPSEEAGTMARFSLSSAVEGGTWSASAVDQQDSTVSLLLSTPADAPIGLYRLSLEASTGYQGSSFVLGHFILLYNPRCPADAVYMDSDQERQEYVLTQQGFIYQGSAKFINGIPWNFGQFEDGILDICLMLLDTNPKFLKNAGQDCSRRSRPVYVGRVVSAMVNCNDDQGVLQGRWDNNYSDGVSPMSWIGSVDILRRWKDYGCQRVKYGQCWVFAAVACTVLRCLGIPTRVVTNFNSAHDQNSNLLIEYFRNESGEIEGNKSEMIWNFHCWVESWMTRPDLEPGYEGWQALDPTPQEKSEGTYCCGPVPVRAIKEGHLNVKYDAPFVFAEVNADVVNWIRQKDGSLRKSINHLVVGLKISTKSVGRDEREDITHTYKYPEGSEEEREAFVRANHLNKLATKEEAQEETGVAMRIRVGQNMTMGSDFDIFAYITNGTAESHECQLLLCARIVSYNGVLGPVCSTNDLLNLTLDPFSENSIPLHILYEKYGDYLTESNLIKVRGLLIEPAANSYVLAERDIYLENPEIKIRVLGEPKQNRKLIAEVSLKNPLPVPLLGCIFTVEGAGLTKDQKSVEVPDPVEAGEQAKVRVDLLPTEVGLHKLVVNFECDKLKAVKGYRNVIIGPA

In the case of `CC1(C)S[C@@H]2[C@H](NC(=O)[C@H](N)c3ccccc3)C(=O)N2[C@H]1C(=O)O` [ampicillin, reference compound], the “sensitivity of methicillin-resistant Staphylococcus aureus (in words)” value [1] is reported as “insensitive”.
With “ATSSVSSRVLNRSLQVKVVKITN [Peptide 23-mer-C]” the “S. aureus (MBC, μM)” value ([2]; ATCC 25923) was greater than 10.0 µM, the “growth of the organism” value [3] was “almost no growth” and the “growth of the organism” value (E. coli (ATCC #8739)) was “almost no growth”. The “growth of the organism” value (S. aureus (ATCC #6538)) was “almost no growth”, the “growth of the organism” value [4] was “almost no growth” and the “growth of the organism” value [5] was “almost no growth”.
In the case of “EYIYNSACSVLSATSSVSSRVLNRSLQVKVVKITN [Peptide 35-mer]”, the “S. aureus (MBC, μM)” value ([2]; ATCC 25923) is reported as greater than 50.0 µM.
In the case of “GIGKFLHSAKKFGKAFVGEIMNS [Magainin II, reference compound]”, the “S. aureus (MBC, μM)” value ([2]; Table 1, deletion peptides) is reported as greater than 3.0 µM.
With “MHDFWVLWVLLEYIYNSACSVLSATSSVSSRVLNRSLQVKVVKITN [Peptide 46-mer]” the “morphology of the microbe by SEM” value (E. coli [6]) was “loss and shrinkage of original cell shapes”, the “morphology of the microbe by SEM” value (Candida albicans) was “loss and shrinkage of original cell shapes” and the “morphology of the microbe by SEM” value (Staphylococcus aureus) was “loss and shrinkage of original cell shapes”. For the same compound, the “decrease of colony forming unit (CFU) percentages” value (from here on “decrease … (CFU) percentages”) (E. coli (ATCC25922); 5 μM mucocidin) was 20%, the “decrease … (CFU) percentages” value (E. coli (ATCC25922); 10 μM mucocidin) was 40% and the “decrease … (CFU) percentages” value (E. coli (ATCC25922); 15 μM mucocidin) was 50%. For the same compound, the “decrease … (CFU) percentages” value (E. coli (ATCC25922); 20 μM mucocidin) was 60%, the “minimal bactericidal concentration (MBC)” value (E. coli (ATCC25922); ATCC25922) was 40 ± 7.3 µM and the “minimal bactericidal concentration (MBC)” value [7] was 80 ± 13.5 µM. The “minimal bactericidal concentration (MBC)” value [1] was 50 ± 10.9 µM, the “sensitivity of methicillin-resistant Staphylococcus aureus (in words)” value [1] was “very sensitive to low concentrations” and the “S. aureus (MBC, μM)” value ([2]; ATCC 25923) was greater than 70.0 µM. The “minimal bactericidal concentration (MBC)” value ([2]; ATCC 25923) was 3 ± 0.5 µM, the “sensitivity of primary growth of Staphylococcus aureus relative to E. coli” value ([2]; S. aureus versus E. coli) was “ten fold more sensitive” and the “bactericidal activity (in words)” value [2] was “good bactericidal activity”. For the same compound, the “time-dependent uptake of MDC into mucocidin” value [8] was “detected only in the presence of Ca^++”.
With “M^1HDFWVLWVLLEYIYNSACSVLS^23 (MHDFWVLWVLLEYIYNSACSVLS; listed as Homo sapiens) [Peptide 23-mer-N, mucocidin residues 1-23]” the “bactericidal activity (in words)” value [2] was “no activity”.
For “SRVLNRSLQVKVVKITN [Peptide 17-mer, SRVLNRSLQVKVVKITN]”, the “S. aureus (MBC, μM)” value ([2]; ATCC 25923) was greater than 5.0 µM.
For SSVSSRVLNRSLQVKVVKITN [Peptide 21-mer], the “S. aureus (MBC, μM)” value ([2]; ATCC 25923) was greater than 3.5 µM.
With “VLNRSLQVKVVKITN [Peptide 15-mer, VLNRSLQVKVVKITN]” the “S. aureus (MBC, μM)” value ([2]; ATCC 25923) was greater than 20.0 µM.
In the case of “VSSRVLNRSLQVKVVKITN [Peptide 19-mer, VSSRVLNRSLQVKVVKITN]”, the “S. aureus (MBC, μM)” value ([2]; ATCC 25923) is reported as greater than 3.5 µM.
With “isolated native salivary mucocidin: glycosylated native mucocidin isolated from human parotid saliva by ion exchange and Superose 12 chromatography (MHDFWVLWVLLEYIYNSACSVLSATSSVSSRVLNRSLQVKVVKITN; also: glycosylated, sites not given here)” the bacteriocidal activity [9] was “bacteriocidal activity similar to mucocidin peptides” and the “antimicrobial activity against E. coli” value (E. coli [10]) was “retained antimicrobial activity”.
